Results as given in patent publication US10183949B2, “Pyrimidinone derivative having autotaxin-inhibitory activity” (The University of Tokyo, priority 2014, dated 2019).

biological target: T1, Human autotaxin enzyme (Homo sapiens, UniProt Q13822); assay: Evaluation of autotaxin inhibitor, 18:0 Lyso PC / choline assay (Test Example 2); assay type: biochemical; conditions: autotaxin inhibition, IC50 class; read-out: Inhibitor activity
T1 construct: purchased R&D System
Procedure, shortened: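 Human autotaxin in 100 mM Tris-HCl pH 7.5, 150 mM NaCl, 5 mM MgCl2, 0.05% Triton X-100 reacted with 18:0 Lyso PC (200 μM stock) and test compound 2 h at room temperature. Released choline quantified via choline oxidase/peroxidase resorufin fluorescence (ex 531/em 598 nm, 20 min); inhibition vs no-compound and no-enzyme controls, concentration-response curve.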

IC50	SMILES
10 to 100 nM	CCc1nc(-c2ccc(Cl)cc2NC(C)=O)cc(=O)n1CC(=O)NC1(C#N)CC1 [Compound I-0256]

same assay, conditions: human autotaxin enzyme, 18:0 Lyso PC substrate, choline assay, room temperature 2 hours; read-out: Inhibitor activity (IC50)

IC50	SMILES
100 to 1000 nM	O=C(NCC(O)c1ccccc1)c1cccc(Cn2c(CCCC(F)(F)F)nc(-c3ccc(Cl)cc3)cc2=O)c1 (centres unmarked) [Compound I-0167]
10 to 100 nM	O=C(Cn1c(CCCC(F)(F)F)nc(-c2ccc(Cl)cc2)cc1=O)NCC1(CO)CC1 [Compound I-0124]
10 to 100 nM	O=C(Cn1c(CCCC(F)(F)F)nc(-c2ccc(C(F)(F)F)cc2)cc1=O)NCCc1nnc(-c2ccccc2)o1 [Compound I-0368]
100 to 1000 nM	CC(C)(C)C(=O)Nc1cc(Cl)ccc1-c1cc(=O)n(Cc2cccc(C(=O)NCC3CCC(=O)NC3)c2)cn1 (centres unmarked) [Compound I-0498]
10 to 100 nM	O=C(Cn1c(CCCC(F)(F)F)nc(-c2ccc(Cl)cc2)cc1=O)N1CCC(O)(CO)CC1 [Compound I-0130]
≥ 1000 nM	CCCCCc1nc(-c2ccc(Cl)cc2)cc(=O)n1CC [Compound I-0006]
10 to 100 nM	Cc1nc(-c2ccc(Cl)cc2NC(=O)C2CC2)cc(=O)n1CC(=O)N1CCC(O)CC1 [Compound I-0435]
10 to 100 nM	COC(=O)Nc1cc(Cl)ccc1-c1cc(=O)n(CC(=O)NCC2CNC(=O)C2)c(C)n1 (centres unmarked) [Compound I-0438]
< 10 nM	CC(C)(O)CNC(=O)Cn1c(CCCC(F)(F)F)nc(-c2ccc(Cl)cc2)cc1=O [Compound I-0134]
< 10 nM	O=C(Cn1c(CCCC(F)(F)F)nc(-c2ccc(C(F)(F)F)cc2)cc1=O)NCc1nn[nH]n1 [Compound I-0331]
100 to 1000 nM	CNC(=O)CNC(=O)c1cccc(Cn2c(CCCC(F)(F)F)nc(-c3ccc(Cl)cc3)cc2=O)c1 [Compound I-0182]
100 to 1000 nM	COC(=O)c1cc(Cn2c(CCCC(F)(F)F)nc(-c3ccc(Cl)cc3)cc2=O)cs1 [Compound I-0313]
10 to 100 nM	CCOCCc1nc(-c2ccc(Cl)cc2)cc(=O)n1CC(=O)NC1(C#N)CC1 [Compound I-0221]
< 10 nM	COC(=O)Nc1cc(C#N)ccc1-c1cc(=O)n(CC(=O)NC(C)(C)C(F)(F)F)c(C)n1 [Compound I-0444]
10 to 100 nM	CCCCCc1nc(-c2ccc(Cl)cc2)cc(=O)n1CC(=O)N1CCC(F)(F)CC1 [Compound I-0087]
100 to 1000 nM	CC(C)(O)CNC(=O)Cn1c(COCC2CC2)nc(-c2ccc(Cl)cc2)cc1=O [Compound I-0214]
10 to 100 nM	N#CC1CN(C(=O)Cn2c(CCCC(F)(F)F)nc(-c3ccc(C(F)(F)F)cc3)cc2=O)C1 [Compound I-0314]
10 to 100 nM	CC(C)(O)CNC(=O)Cn1c(CCCC(F)(F)F)nc(-c2ccc(C(F)(F)F)cc2)cc1=O [Compound I-0321]
100 to 1000 nM	CCCCCn1c(-c2ccc(Cl)cc2)cc(=O)n(CC(=O)NC(Cc2ccccc2)C(=O)O)c1=O (centres unmarked) [Compound I-0151]
100 to 1000 nM	Cc1nc(-c2ccc(Cl)cc2NC(=O)C2CC2)cc(=O)n1CC(=O)N1CC(C)(O)C1 [Compound I-0420]
100 to 1000 nM	CNC(=O)CNC(=O)Cn1c(CCCC(F)(F)F)nc(-c2ccc(Cl)cc2)cc1=O [Compound I-0126]
10 to 100 nM	CC(C)(C)OC(=O)Cn1c(CCCC(F)(F)F)nc(-c2ccc(Cl)cc2F)cc1=O [Compound I-0284]
10 to 100 nM	COC(=O)c1cccc(Cn2c(CCCC(F)(F)F)nc(-c3ccc(Cl)cc3)cc2=O)n1 [Compound I-0306]
10 to 100 nM	O=C(Cn1c(CCCC(F)(F)F)nc(-c2ccc(C(F)(F)F)cc2)cc1=O)NCC(O)CO (centres unmarked) [Compound I-0323]
100 to 1000 nM	C[C@@H]1CN(C(=O)c2cccc(Cn3c(CCCC(F)(F)F)nc(-c4ccc(Cl)cc4)cc3=O)c2)C[C@H](C)O1 [Compound I-0166]
100 to 1000 nM	O=C(NC(CO)c1ccccc1)c1cccc(Cn2c(CCCC(F)(F)F)nc(-c3ccc(Cl)cc3)cc2=O)c1 (centres unmarked) [Compound I-0178]
100 to 1000 nM	O=C(N[C@H]1CC[C@H](O)CC1)c1cccc(Cn2c(CCCC(F)(F)F)nc(-c3ccc(Cl)cc3)cc2=O)c1 [Compound I-0174]

SMILES	IC50
CCCCCc1nc(-c2ccc(Cl)cc2)cc(=O)n1CC(=O)NC1CN2CCC1CC2 (centres unmarked) [Compound I-0104]	100 to 1000 nM
